This is an account of results in ChEMBL document CHEMBL3091360, “Homosecoiridoid alkaloids with amino acid units from the flower buds of Lonicera japonica” (J Nat Prod, 2013).

Assay [1] concerns Human immunodeficiency virus 1. Description: Antiviral activity against HIV1 infected in human 293T cells expressing VSV-G assessed as inhibition of viral p24 production at 10 uM after 48 hrs by ELISA. In kind it is functional, organism-based.
For the next assay, the system named is HCT-8. In words: Cytotoxicity against human HCT8 cells at 10 uM after 96 hrs by MTT assay. Type of assay: functional, cell-based.
Another assay relates to KETR3. Description: Cytotoxicity against human Ketr3 cells at 10 uM after 96 hrs by MTT assay. Type of assay: functional, cell-based.
Another assay relates to Bel-7402. Description: Cytotoxicity against human Bel7402 cells at 10 uM after 96 hrs by MTT assay. Type of assay: functional, cell-based.
The next assay deals with MCF7. Description: Cytotoxicity against human MCF7 cells at 10 uM after 96 hrs by MTT assay. Type of assay: functional, cell-based.
Another assay deals with BGC-823. Description: Cytotoxicity against human BGC823 cells at 10 uM after 96 hrs by MTT assay. Type of assay: functional, cell-based.
In the next assay the test system is A549. Description: Cytotoxicity against human A549 cells at 10 uM after 96 hrs by MTT assay. Type of assay: functional, cell-based.
Assay [2] is described as follows: Antiinflammatory activity in rat polymorphonuclear leukocytes assessed as inhibition of PAF-induced release of glucuronidase at 10 uM. In kind it is functional.
Another assay has as its system Influenza A virus H3N2. Description: microbe, parasite or virus in culture. Particulars: Hanfang/359/95.
The subject of the next assay is Coxsackievirus B3. Description: Antiviral activity against Coxsackie virus B3 assessed as inhibition of viral replication. In kind it is functional, organism-based. Particulars: Enterovirus B.

Active and inactive are the calls of the source. The calls are words filed in the database; no cut-off is given here. A value given as a limit tells only on which side of the number the result lay.

With `C=C[C@H]1[C@H](O[C@@H]2O[C@H](CO)[C@@H](O)[C@H](O)[C@H]2O)OC=C(C(=O)O)[C@H]1/C=C/c1cc(C(=O)O)c[n+]([C@H](Cc2ccccc2)C(=O)[O-])c1`, the inhibition result in [1] is “inactive”. Further, the result with HCT-8, with KETR3, with Bel-7402, in the assay with MCF7, in the assay with BGC-823 and in the assay with A549 was inactive. For the same molecule, the inhibition at 10 µM in [2] is below 30%. The same molecule yielded an IC50 with Influenza A virus H3N2 of 8.2 µM.

As for `COC[C@H]1O[C@@H](n2cnc3c(N)ncnc32)[C@H](O)[C@@H]1O`, in assay [1], the inhibition entry was “inactive”. Besides, the result in the assay with HCT-8, with KETR3, with Bel-7402, in the assay on MCF7, in the assay with BGC-823 and in the assay on A549 was inactive. Besides, the inhibition at 10 µM in [2] was below 30%. For the same molecule, the IC50 in the assay with Influenza A virus H3N2 came out at 3.4 µM.

For the molecule `C=C[C@H]1[C@H](O[C@@H]2O[C@H](CO)[C@@H](O)[C@H](O)[C@H]2O)OC=C(C(=O)O)[C@H]1/C=C/c1ccc[n+]([C@H](Cc2ccccc2)C(=O)[O-])c1`, the inhibition entry in assay [1] was “inactive”. Moreover, the result with HCT-8, with KETR3, with Bel-7402, with MCF7, with BGC-823 and in the assay with A549 was inactive. Further, the inhibition at 10 µM in assay [2] came out at 53.8%. In addition, the IC50 with Coxsackievirus B3 amounted to 12.3 µM; in the assay with Influenza A virus H3N2 it was 6.8 µM.

In the assay with Influenza A virus H3N2, `CCOC(=O)C1=C[C@@H](OC(CC)CC)[C@H](NC(C)=O)[C@@H](N)C1` [OSELTAMIVIR] came in with an IC50 of 1.3 µM.

As to `C=C[C@H]1[C@H](O[C@@H]2O[C@H](CO)[C@@H](O)[C@H](O)[C@H]2O)OC=C(C(=O)[O-])[C@H]1/C=C/c1cc(C(=O)O)c[n+]([C@@H](CC(C)C)C(=O)O)c1`, the inhibition entry in [1] was “inactive”. Moreover, the outcome with HCT-8, in the assay on KETR3, in the assay with Bel-7402, with MCF7, in the assay on BGC-823 and with A549 was inactive. Besides, in assay [2], the inhibition at 10 µM is below 30%. This molecule yielded an IC50 in the assay on Influenza A virus H3N2 of 10.3 µM.

In the case of `Cc1cc(CCCOc2c(C)cc(-c3noc(C(F)(F)F)n3)cc2C)on1` [PLECONARIL], in the assay with Coxsackievirus B3, the IC50 is 0.3 µM.

On to `C=C[C@H]1[C@H](O[C@@H]2O[C@H](CO)[C@@H](O)[C@H](O)[C@H]2O)OC=C(C(=O)O)[C@H]1/C=C/c1ccc[n+]([C@@H](C)C(=O)[O-])c1`, for which the inhibition result in assay [1] is “inactive”. Further, the result with HCT-8, with KETR3, in the assay with Bel-7402, in the assay on MCF7, in the assay with BGC-823 and with A549 was inactive. Also, in assay [2], the inhibition at 10 µM is 63.2%. In the assay on Influenza A virus H3N2, this molecule showed an IC50 of 11.6 µM.

On to `O=C(/C=C/c1ccc(O)c(O)c1)O[C@@H]1C[C@](O)(C(=O)O)C[C@@H](OC(=O)/C=C/c2ccc(O)c(O)c2)[C@H]1O`, for which the inhibition entry in [1] was “inactive”. For the same molecule, the result in the assay with HCT-8, in the assay with KETR3, in the assay on Bel-7402, in the assay with MCF7, in the assay on BGC-823 and in the assay on A549 was inactive. For the same molecule, the inhibition at 10 µM in [2] is below 30%. In the assay with Influenza A virus H3N2, this molecule showed an IC50 of 4.9 µM.

`O=C(O)/C=C/c1ccc(O)c(O)c1` [CAFFEIC ACID]: the inhibition result in assay [1] was “inactive”. The result in the assay with HCT-8, in the assay with KETR3, with Bel-7402, in the assay with MCF7, with BGC-823 and in the assay on A549 was inactive. For the same molecule, the inhibition at 10 µM in assay [2] is 40.3%.

`O=C(/C=C/c1ccc(O)c(O)c1)O[C@@H]1[C@H](O)C[C@@](O)(C(=O)O)C[C@H]1OC(=O)/C=C/c1ccc(O)c(O)c1`: in assay [1], the inhibition entry is “inactive”. In addition, the result with HCT-8, with KETR3, in the assay on Bel-7402, with MCF7, with BGC-823 and with A549 was inactive. The inhibition at 10 µM in assay [2] is below 30%. Also, in the assay with Influenza A virus H3N2, the IC50 was determined as 10.2 µM.

Take `COC(=O)C1=CO[C@@H]2C[C@H]1C[C@@H]1C(C(=O)OC)=CO[C@@H](O[C@@H]3O[C@H](CO)[C@@H](O)[C@H](O)[C@H]3O)[C@@H]12`: the inhibition result in assay [1] is “inactive”. Also, the outcome with HCT-8, with KETR3, with Bel-7402, with MCF7, with BGC-823 and in the assay on A549 was inactive. Besides, the inhibition at 10 µM in assay [2] is below 30%.

For the molecule `O=C(O)c1cc(O[C@@H]2O[C@H](CO)[C@@H](O)[C@H](O)[C@H]2O)ccc1O`, the inhibition entry in assay [1] is “inactive”. Further, the outcome in the assay on HCT-8, with KETR3, with Bel-7402, in the assay with MCF7, in the assay on BGC-823 and in the assay on A549 was inactive. Also, the inhibition at 10 µM in assay [2] was below 30%.
